The text below walks through data of US20130303507A1 (Novartis AG, priority 2011, published 2013).

Each structure is given as a SMILES string.

The assay deals with Cdk9/cyclinT1 (Homo sapiens, UniProt P50750). Kind of assay: Cdk9/cyclinT1 IMAP protocol (fluorescence polarization). Particulars: IC-50, CDK9; lower limit of assay 0.0005 micromolar.
Sequence of Cdk9/cyclinT1 (P50750 whole entry): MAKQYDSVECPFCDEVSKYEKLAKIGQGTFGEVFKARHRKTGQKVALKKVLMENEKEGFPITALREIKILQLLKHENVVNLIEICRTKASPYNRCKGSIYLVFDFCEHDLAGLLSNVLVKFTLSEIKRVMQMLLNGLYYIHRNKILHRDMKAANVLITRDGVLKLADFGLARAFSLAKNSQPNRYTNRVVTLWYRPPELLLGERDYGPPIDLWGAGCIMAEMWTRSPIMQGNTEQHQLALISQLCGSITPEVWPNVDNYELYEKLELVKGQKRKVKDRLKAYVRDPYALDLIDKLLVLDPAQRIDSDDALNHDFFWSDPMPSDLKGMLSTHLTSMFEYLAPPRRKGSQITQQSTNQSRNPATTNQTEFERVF
Sequence of Cdk9/cyclinT1 (O60563 whole entry partner): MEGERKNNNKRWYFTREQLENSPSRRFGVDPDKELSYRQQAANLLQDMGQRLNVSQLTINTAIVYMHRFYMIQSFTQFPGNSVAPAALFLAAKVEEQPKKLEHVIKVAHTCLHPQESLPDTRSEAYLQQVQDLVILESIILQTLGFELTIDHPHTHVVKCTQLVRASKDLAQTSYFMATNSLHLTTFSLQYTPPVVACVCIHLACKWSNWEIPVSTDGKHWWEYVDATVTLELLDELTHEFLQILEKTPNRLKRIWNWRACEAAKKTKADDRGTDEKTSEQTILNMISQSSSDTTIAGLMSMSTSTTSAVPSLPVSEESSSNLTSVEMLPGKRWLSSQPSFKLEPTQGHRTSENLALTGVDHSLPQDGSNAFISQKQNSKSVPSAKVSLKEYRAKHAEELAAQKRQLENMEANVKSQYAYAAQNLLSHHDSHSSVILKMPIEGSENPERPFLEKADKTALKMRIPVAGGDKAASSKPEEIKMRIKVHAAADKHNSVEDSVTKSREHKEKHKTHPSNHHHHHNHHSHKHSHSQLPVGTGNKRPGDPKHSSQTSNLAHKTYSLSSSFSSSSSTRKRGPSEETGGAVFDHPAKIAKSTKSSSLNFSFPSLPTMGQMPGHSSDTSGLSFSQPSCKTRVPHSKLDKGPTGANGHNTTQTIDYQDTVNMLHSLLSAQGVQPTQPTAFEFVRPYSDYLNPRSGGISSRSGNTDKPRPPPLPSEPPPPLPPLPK
`N#CC1(CNc2cccc(-c3cc(N[C@H]4CC[C@H](NCCC(F)(F)F)CC4)ncc3Cl)n2)CCOCC1` [Compound 433, 4-(((5′-chloro-2′-((trans-4-((3,3,3-trifluoropropyl)amino)cyclohexyl)amino)-[2,4′-bipyridin]-6-yl)amino)methyl)tetrahydro-2H-pyran-4-carbonitrile] returned a half-maximal inhibitory concentration (IC50) of 0.6 nM.
`N#CC1(CNc2cccc(-c3cc(N[C@H]4CC[C@H](N5CCCC5)CC4)ncc3Cl)n2)CCOCC1` [Compound 434, 4-(((5′-chloro-2′-((trans-4-(pyrrolidin-1-yl)cydohexyl)amino)-[2,4′-bipyridin]-6-yl)amino)methyl)tetrahydro-2H-pyran-4-carbonitrile] had a half-maximal inhibitory concentration (IC50) of no more than 0.5 nM.
`CO[C@@H]1CC[C@H](Nc2cc(-c3cccc(NCC4(C#N)CCOCC4)n3)c(Cl)cn2)C[C@H]1N` [Compound 438, 4-(((2′-(((1S,3R,4R)-3-amino-4-methoxycyclohexyl)amino)-5′-chloro-[2,4′-bipyridin]-6-yl)amino)methyl)tetrahydro-2H-pyran-4-carbonitrile] came in with an IC50 of 20 nM.
In the case of `CO[C@H]1C[C@@H](Nc2cc(-c3cccc(NCC4(C#N)CCOCC4)n3)c(Cl)cn2)CC[C@@H]1N` [Compound 439, 4-(((2′-(((1S,3S,4S)-4-amino-3-methoxycyclohexyl)amino)-5′-chloro-[2,4′-bipyridin]-6-yl)amino)methyl)tetrahydro-2H-pyran-4-carbonitrile] it was 10 nM; in that of `N#CC1(CNc2cccc(-c3cc(NCC4CCOCC4)ncc3Cl)n2)CCOCC1` [Compound 441, 4-(((5′-chloro-2′-(((tetrahydro-2H-pyran-4-yl)methyl)amino)-[2,4′-bipyridin]-6-yl)amino)methyl)tetrahydro-2H-pyran-4-carbonitrile], 3 nM.
Molecule `N#CC1(CNc2cccc(-c3cc(N[C@H]4CC[C@H](N5CCOCC5)CC4)ncc3Cl)n2)CCOCC1` [Compound 442, 4-(((5′-chloro-2′-((trans-4-morpholinocyclohexyl)amino)-[2,4′-bipyridin]-6-yl)amino)methyl)tetrahydro-2H-pyran-4-carbonitrile] had an IC50 of 0.6 nM.
In the case of `N#CC1(CNc2cccc(-c3cc(NC4CCOCC4)ncc3Cl)n2)CCOCC1` [Compound 443, 4-(((5′-chloro-2′-((tetrahydro-2H-pyran-4-yl)amino)-[2,4′-bipyridin]-6-yl)amino)methyl)tetrahydro-2H-pyran-4-carbonitrile], the 50% inhibitory concentration (IC50) came to 1.7 nM.
As for `N#CCCN[C@H]1CC[C@H](Nc2cc(-c3cccc(NCC4CCOCC4)n3)c(Cl)cn2)CC1` [Compound 444, 3-((trans-4-((5′-chloro-6-(((tetrahydro-2H-pyran-4-yl)methyl)amino)-[2,4′-bipyridin]-2′-yl)amino)cyclohexyl)amino) propanenitrile], the IC50 is 2.4 nM.
`COC[C@@H](C)N[C@H]1CC[C@H](Nc2cc(-c3cccc(NCCC#N)n3)c(Cl)cn2)CC1` [Compound 445, 3-((5′-chloro-2′-((trans-4-(((R)-1-methoxypropan-2-yl)amino)cyclohexyl)amino)-[2,4′-bipyridin]-6-yl)amino)propanenitrile] displayed a half-maximal inhibitory concentration (IC50) of 2.1 nM.
In the case of `COCCN(CCOC)[C@H]1CC[C@H](Nc2cc(-c3cccc(NCC4(C#N)CCOCC4)n3)c(Cl)cn2)CC1` [Compound 446, 4-(((2′-((trans-4-(bis(2-methoxyethyl)amino)cyclohexyl)amino)-5′-chloro-[2,4′-bipyridin]-6-yl)amino)methyl)tetrahydro-2H-pyran-4-carbonitrile] it was less than 0.5 nM; in that of `COC[C@]1(O)CC[C@@H](Nc2cc(-c3cccc(NCC4CCOCC4)n3)c(Cl)cn2)CC1` [Compound 447, Cis-4-((5′-chloro-6-(((tetrahydro-2H-pyran-4-yl)methyl)amino)-[2,4′-bipyridin]-2′-yl)amino)-1-(methoxymethyl)cyclohexanol], 42 nM.
In the case of `COC[C@]1(O)CC[C@@H](Nc2cc(-c3cccc(NCC4(C#N)CCOCC4)n3)c(Cl)cn2)CC1` [Compound 448, 4-(((5′-chloro-2′-((cis-4-hydroxy-4-(methoxymethyl)cyclohexyl)amino)-[2,4′-bipyridin]-6-yl)amino)methyl)tetrahydro-2H-pyran-4-carbonitrile], it took 1.1 nM to reach half-maximal inhibition (IC50).
The molecule `COC[C@]1(O)CC[C@H](Nc2cc(-c3cccc(NCC4(C#N)CCOCC4)n3)c(Cl)cn2)CC1` [Compound 449, 4-(((5′-chloro-2′-((trans-4-hydroxy-4-(methoxymethyl)cyclohexyl)amino)-[2,4′-bipyridin]-6-yl)amino)methyl)tetrahydro-2H-pyran-4-carbonitrile] gave an IC50 of 5.5 nM.
The figure for `N[C@H]1CC[C@H](Nc2cc(-c3cccc(NCC4(O)CCOCC4)n3)c(Cl)cn2)CC1` [Compound 450, 4-(((2′-((trans-4-aminocyclohexyl)amino)-5′-chloro-[2,4′-bipyridin]-6-yl)amino)methyl)tetrahydro-2H-pyran-4-ol] is 1.5 nM; for `COC[C@H](C)N[C@H]1CC[C@H](Nc2cc(-c3cccc(NCC4(O)CCOCC4)n3)c(Cl)cn2)CC1` [Compound 451, 4-(((5′-chloro-2′-((trans-4-(((S)-1-methoxypropan-2-yl)amino)cyclohexyl)amino)-[2,4′-bipyridin]-6-yl)amino)methyl)tetrahydro-2H-pyran-4-ol] it is 7 nM.
`CCOC(=O)C(C)(C)N[C@H]1CC[C@H](Nc2cc(-c3cccc(NCC4(C#N)CCOCC4)n3)c(Cl)cn2)CC1` [Compound 452, ethyl 2-((trans-4-((5′-chloro-6-(((4-cyanotetrahydro-2H-pyran-4-yl)methyl)amino)-[2,4′-bipyridin]-2′-yl)amino)cyclohexyl)amino)-2-methylpropanoate] showed an IC50 of 0.7 nM.
In the case of `CC(C)(CO)N[C@H]1CC[C@H](Nc2cc(-c3cccc(NCC4(C#N)CCOCC4)n3)c(Cl)cn2)CC1` [Compound 453, 4-(((5′-chloro-2′-((trans-4-((1-hydroxy-2-methylpropan-2-yl)amino)cyclohexyl)amino)-[2,4′-bipyridin]-6-yl)amino)methyl)tetrahydro-2H-pyran-4-carbonitrile] it was less than 0.5 nM; in that of `COCC(C)(C)N[C@H]1CC[C@H](Nc2cc(-c3cccc(NCC4(C#N)CCOCC4)n3)c(Cl)cn2)CC1` [Compound 454, 4-(((5′-chloro-2′-((trans-4-((1-methoxy-2-methylpropan-2-yl)amino)cyclohexyl)amino)-[2,4′-bipyridin]-6-yl)amino)methyl)tetrahydro-2H-pyran-4-carbonitrile], 2 nM; in that of `COCCNC(=O)[C@H]1CC[C@H](Nc2cc(-c3cccc(NCC4(C#N)CCOCC4)n3)c(Cl)cn2)CC1` [Compound 455, trans-4-((5′-chloro-6-(((4-cyanotetrahydro-2H-pyran-4-yl)methyl)amino)-[2,4′-bipyridin]-2′-yl)amino)-N-(2-methoxyethyl)cyclohexane-carboxamide], 0.8 nM.
`COC[C@H](C)N[C@H]1CC[C@H](Nc2cc(-c3ccc(F)c(NCC4CCOC(C)(C)C4)n3)c(Cl)cn2)CC1` (stereo partly drawn) [Compound 457, 5′-chloro-N6-((2,2-dimethyltetrahydro-2H-pyran-4-yl)methyl)-5-fluoro-N2′-(trans-4-(((S)-1-methoxypropan-2-yl)amino)cyclohexyl)-[2,4′-bipyridine]-2′,6-diamine] came in with a half-maximal inhibitory concentration (IC50) of 1.6 nM.
`COC[C@H](C)N[C@H]1CC[C@H](Nc2cc(-c3ccc(F)c(NCC4(C#N)CCOCC4)n3)c(Cl)cn2)CC1` [Compound 458, 4-(((5′-chloro-5-fluoro-2′-((trans-4-(((S)-1-methoxypropan-2-yl)amino)cyclohexyl)amino)-[2,4′-bipyridin]-6-yl)amino)methyl)tetrahydro-2H-pyran-4-carbonitrile] displayed a 50% inhibitory concentration (IC50) of less than 0.5 nM.
The figure for `COC[C@H](C)N[C@H]1CC[C@H](Nc2cc(-c3cccc(NCC4(C#N)CCOCC4)n3)c(Cl)cn2)CC1` [Compound 459, 4-(((5′-chloro-2′-((trans-4-(((S)-1-methoxypropan-2-yl)amino)cyclohexyl)amino)-[2,4′-bipyridin]-6-yl)amino)methyl)tetrahydro-2H-pyran-4-carbonitrile] is no more than 0.5 nM; for `COC[C@H](C)N[C@H]1CC[C@H](Nc2cc(-c3ccc(F)c(NC[C@@H]4CCOC(C)(C)C4)n3)c(Cl)cn2)CC1` [Compound 462, 5′-chloro-N6-(((R)-2,2-dimethyltetrahydro-2H-pyran-4-yl)methyl)-5-fluoro-N2′-(trans-4-(((S)-1-methoxypropan-2-yl)amino)cyclohexyl)-[2,4′-bipyridine]-2′,6-diamine] it is 1.2 nM; for `COC[C@H](C)N[C@H]1CC[C@H](Nc2cc(-c3ccc(F)c(NC[C@H]4CCOC(C)(C)C4)n3)c(Cl)cn2)CC1` [Compound 463, 5′-chloro-N6-(((S)-2,2-dimethyltetrahydro-2H-pyran-4-yl)methyl)-5-fluoro-N2′-(trans-4-(((S)-1-methoxypropan-2-yl)amino)cyclohexyl)-[2,4′-bipyridine]-2′,6-diamine] it is 1.9 nM.
The figure for `N#CC1(CNc2cccc(-c3cc(N[C@H]4CC[C@H](N)CC4)ncc3Cl)n2)CCOCC1` [Compound 464, 4-(((2′-((trans-4-aminocyclohexyl)amino)-5′-chloro-[2,4′-bipyridin]-6-yl)amino)methyl)tetrahydro-2H-pyran-4-carbonitrile] is less than 0.5 nM.
For `N#CC1(CNc2cccc(-c3cc(N[C@H]4CC[C@@H](N)CC4)ncc3Cl)n2)CCOCC1` [Compound 465, 4-(((2′-((cis-4-aminocyclohexyl)amino)-5′-chloro-[2,4′-bipyridin]-6-yl)amino)methyl)tetrahydro-2H-pyran-4-carbonitrile], it took 1.2 nM to reach half-maximal inhibition (IC50).
For `CC1(CNc2nc(-c3cc(N[C@H]4CC[C@@H](N)CC4)ncc3Cl)ccc2F)CCOCC1` [Compound 466], half-maximal inhibition (IC50) required 3.9 nM.
`N#CC1(CNc2cccc(-c3cc(N[C@H]4CC[C@H](NC5CCOC5)CC4)ncc3Cl)n2)CCOCC1` (stereo partly drawn) [Compound 467, 4-(((5′-chloro-2′-((trans-4-((tetrahydrofuran-3-yl)amino)cyclohexyl)amino)-[2,4′-bipyridin]-6-yl)amino)methyl)tetrahydro-2H-pyran-4-carbonitrile] gave a 50% inhibitory concentration (IC50) of less than 0.5 nM.
